# Values quoted from earlier work in patent US9764130B2, “Transdermal systems for the delivery of therapeutic agents including granisetron using iontophoresis” (Teva Pharmaceuticals International GmbH, priority 2005, dated 2017).
# Settings: transdermal iontophoresis from anode pad; hairless rat animal model; AAPS 2003/2004 abstracts
smiles,measurement,value
CN1C2CCCC1CC(NC(=O)c1nn(C)c3ccccc13)C2 (stereo not shown) [granisetron],time within which a therapeutic dosage is achieved with iontophoresis,two
